Results published in patent publication US20240076609A1, “COMPOSITIONS AND METHODS FOR CULTURING AND EXPANDING CELLS” (LIFE TECHNOLOGIES CORPORATION, priority 2017, published 2024).
Several values for one entry are separate records, joined by “and”; a condition that tells them apart may be missing. Equal entries are not always repeated.

Legend:
[1] = system: Primary human T cells; assay: CD8+/CD4+ phenotype with 2-DG at different time points and every feed; format: cell-based; settings: for Fold Increase compared to Baseline: Day 10 vs Day 0 ratio
Description: FIG. 45 represents the data shown in Table 39 which highlights the fold increase in CD8+ to CD4+ ratio of T cells cultured with 2-DG at different time points and every time the cells were fed.
(§1) Phenotype: Primary human T cells were expanded for 10 days with and without 2-DG and 5% human AB serum. DYNABEADS® were removed from 2×10^6 cells by magnetic separation. Surface staining was performed with antibodies against CD3 (Invitrogen, Cat. No. CD0329), CD4 (Molecular Probes, Cat. No. A15858), CD8 (Invitrogen, Cat. No. MHCD0828). Flow cytometric analysis was performed on a Gallios flow cytometer and Kaluza software (Beckman Coulter, Indianapolis IN).

[2] = system: Non-naïve T cells; assay: CD8+/CD4+ phenotype after 10 days with 2-DG in non-naïve T cells; format: cell-based, human; settings: 4 mM 2-DG
Description: For some studies, CD8+ and CD4+ T cells were isolated from PBMCs by negative selection using Untouched Human CD8+ and CD4+ T Cells Kits. Naïve and non-naïve T cells were isolated from enriched T cells by positive selection using CD45RA nanobeads (Miltenyi). Phenotype: Primary human T cells were expanded for 10 days with and without 2-DG and 5% human AB serum. DYNABEADS® were removed from 2×10^6 cells by magnetic separation. Surface staining was performed with antibodies against CD3 (Invitrogen, Cat. No. CD0329), CD4 (Molecular Probes, Cat. No. A15858), CD8 (Invitrogen, Cat. No. MHCD0828). Flow cytometric analysis was performed on a Gallios flow cytometer and Kaluza software (Beckman Coulter, Indianapolis IN). For some studies, CD8+ and CD4+ T cells were isolated from PBMCs by negative selection using Untouched Human CD8+ and CD4+ T Cells Kits. Naïve and non-naïve T cells were isolated from enriched T cells by positive selection using CD45RA nanobeads (Miltenyi). Phenotype: Primary human T cells were expanded for 10 days with and without 2-DG and 5% human AB serum. DYNABEADS® were removed from 2×10^6 cells by magnetic separation. Surface staining was performed with antibodies against CD3 (Invitrogen, Cat. No. CD0329), CD4 (Molecular Probes, Cat. No. A15858), CD8 (Invitrogen, Cat. No. MHCD0828). Flow cytometric analysis was performed on a Gallios flow cytometer and Kaluza software (Beckman Coulter, Indianapolis IN).

[3] = system: Pan CD3+ T cells; assay: CD8+/CD4+ phenotype by flow cytometry after 10 days with 2-DG; format: cell-based, human; settings: for CD8+ T cell population (frequency): day 10
Description: as §1, with “IN). Phenotype: Primary human T cells were expanded for 10 days with and without 2-DG and 5% human AB serum. DYNABEADS® were removed from 2×10^6 cells by magnetic separation. Surface staining was performed with antibodies against CD3 (Invitrogen, Cat. No. CD0329), CD4 (Molecular Probes, Cat. No. A15858), CD8 (Invitrogen, Cat. No. MHCD0828). Flow cytometric analysis was performed on a Gallios flow cytometer and Kaluza software (Beckman Coulter, Indianapolis IN).” for “IN).”

[4] = 0.25 mM 2-DG at Day 0, Day 10 of culture
[5] = 0.25 mM 2-DG at Day 0, after 10 days of culture
[6] = 0.25 mM 2-DG at Day 3, Day 10 of culture
[7] = 0.25 mM 2-DG at Day 3, after 10 days of culture
[8] = 0.25 mM 2-DG at Day 5, Day 10 of culture
[9] = 0.25 mM 2-DG at Day 5, after 10 days of culture
[10] = 0.25 mM 2-DG at Day 7, Day 10 of culture
[11] = 0.25 mM 2-DG at Day 7, after 10 days of culture
[12] = 0.25 mM 2-DG at Every Feed, Day 10 of culture
[13] = 0.25 mM 2-DG at Every Feed, after 10 days of culture
[14] = Day 10, non-naïve T cells, replicates
[15] = 0.25 mM 2-DG, Day 10 of culture
[16] = 0.25 mM 2-DG, Day 10, single donors
[17] = 0.5 mM 2-DG, Day 10, single donors

`O=CC[C@@H](O)[C@H](O)[C@H](O)CO` [2-DG, 2-Deoxy-D-Glucose] was tested, and the “% CD4+” value [1, 4] was 74.78%, the “% CD8+” value [1, 4] was 22.88% and the “% Ratios (CD8+/CD4+)” value [1, 4] was 0.31. For the same compound, the “Fold Increase compared to Baseline” value ([1]; 0.25 mM 2-DG at Day 0) was 1.38, the “% CD4+” value [1, 5] was 74.78% and the “% CD8+” value [1, 5] was 22.88%. The “% Ratios (CD8+/CD4+)” value [1, 5] was 0.31, the “% CD4+” value [1, 6] was 70.62% and the “% CD8+” value [1, 6] was 25.76%. For the same compound, the “% Ratios (CD8+/CD4+)” value [1, 6] was 0.36, the “Fold Increase compared to Baseline” value ([1]; 0.25 mM 2-DG at Day 3) was 1.64 and the “% CD4+” value [1, 7] was 70.62%. The “% CD8+” value [1, 7] was 25.76%, the “% Ratios (CD8+/CD4+)” value [1, 7] was 0.36 and the “% CD4+” value [1, 8] was 76.18%. The “% CD8+” value [1, 8] was 21.26%, the “% Ratios (CD8+/CD4+)” value [1, 8] was 0.28 and the “Fold Increase compared to Baseline” value ([1]; 0.25 mM 2-DG at Day 5) was 1.26. For the same compound, the “% CD4+” value [1, 9] was 76.18%, the “% CD8+” value [1, 9] was 21.26% and the “% Ratios (CD8+/CD4+)” value [1, 9] was 0.28. For the same compound, the “% CD4+” value [1, 10] was 73.28%, the “% CD8+” value [1, 10] was 23.91% and the “% Ratios (CD8+/CD4+)” value [1, 10] was 0.33. For the same compound, the “Fold Increase compared to Baseline” value ([1]; 0.25 mM 2-DG at Day 7) was 1.47, the “% CD4+” value [1, 11] was 73.28% and the “% CD8+” value [1, 11] was 23.91%. The “% Ratios (CD8+/CD4+)” value [1, 11] was 0.33, the “% CD4+” value [1, 12] was 76.76% and the “% CD8+” value [1, 12] was 20.35%. For the same compound, the “% Ratios (CD8+/CD4+)” value [1, 12] was 0.27, the “Fold Increase compared to Baseline” value ([1]; 0.25 mM 2-DG at Every Feed) was 1.19 and the “% CD4+” value [1, 13] was 76.76%. The “% CD8+” value [1, 13] was 20.35%, the “% Ratios (CD8+/CD4+)” value [1, 13] was 0.27 and the “Fold Increase in CD8+ to CD4+ ratio” value ([1]; 0.25 mM 2-DG every time cells were fed) was 3 fold. For the same compound, the “Fold Increase in CD8+ to CD4+ ratio” value ([1]; 0.25 mM 2-DG on day 7 only) was 3 fold, the “effect on CD8+:CD4+ ratio in non-naïve T cells” value ([2]; 10 days) was “lesser effect” and the “% CD4+ (Avg)” value ([2]; Day 10, non-naïve T cells) was 81.08%. The “% CD8+ (Avg)” value ([2]; Day 10, non-naïve T cells) was 12.23%, the “% Ratios (CD8+/CD4+)” value ([2]; Day 10, non-naïve T cells) was 0.15 and the “% CD4+” value [2, 14] was 80.85% and 81.31%. For the same compound, the “% CD8+” value [2, 14] was 12.23%, the “Fold Increase compared to Baseline” value ([2]; Day 10 vs Day 0, non-naïve T cells) was 0.35 and the “% CD4+” value [3, 15] was 39.21% and 32.39% and 22.68%. The “% CD8+” value [3, 15] was 53.46% and 63.2% and 70.32%, the “% Ratios (CD8+/CD4+) (Avg)” value ([3]; 0.25 mM 2-DG, Day 10 of culture, average) was 2.1 and the “Fold Increase compared to Baseline” value ([3]; 0.25 mM 2-DG, Day 10 vs Day 0 CD8+/CD4+ ratio) was 3.02 and 2.49 and 3.99. The “% Ratios (CD8+/CD4+) (Avg)” value ([3]; 0.25 mM 2-DG, Day 10) was 2.1, the “% CD4+” value [3, 16] was 39.21% and 32.39% and 22.68% and the “% CD8+” value [3, 16] was 53.46% and 63.2% and 70.32%. The “% Ratios (CD8+/CD4+)” value [3, 16] was 1.36 and 1.95 and 3.10, the “Fold Increase (Avg)” value ([3]; 0.25 mM 2-DG, Day 10 vs Day 0) was 3.2 and the “Fold Increase in CD8+ to CD4+ ratio” value ([3]; 0.25 mM 2-DG, Day 10 vs Day 0, single donors) was 3.02 and 2.49 and 3.99. For the same compound, the “CD8+ T cell population (frequency)” value ([3]; 0.25 mM and 0.5 mM 2-DG, single donor) was 48%, the “% CD4+” value ([3]; 0.5 mM 2-DG, Day 10 of culture) was 37.08% and 29.85% and 23.85% and the “% CD8+” value ([3]; 0.5 mM 2-DG, Day 10 of culture) was 55.04% and 66.57% and 68.64%. For the same compound, the “% Ratios (CD8+/CD4+)” value ([3]; 0.5 mM 2-DG, Day 10 of culture) was 1.48 and 2.23 and 2.88, the “% Ratios (CD8+/CD4+) (Avg)” value ([3]; 0.5 mM 2-DG, Day 10 of culture, average) was 2.2 and the “Fold Increase compared to Baseline” value ([3]; 0.5 mM 2-DG, Day 10 vs Day 0 CD8+/CD4+ ratio) was 3.29 and 2.85 and 3.7. The “% Ratios (CD8+/CD4+) (Avg)” value ([3]; 0.5 mM 2-DG, Day 10) was 2.2, the “% CD4+” value [3, 17] was 37.08% and 29.85% and 23.85% and the “% CD8+” value [3, 17] was 55.04% and 66.57% and 68.64%. For the same compound, the “% Ratios (CD8+/CD4+)” value [3, 17] was 1.48 and 2.23 and 2.88, the “Fold Increase (Avg)” value ([3]; 0.5 mM 2-DG, Day 10 vs Day 0) was 3.6 and the “Fold Increase in CD8+ to CD4+ ratio” value ([3]; 0.5 mM 2-DG, Day 10 vs Day 0, single donors) was 3.29 and 2.85 and 3.7. The “% CD4+” value ([3]; 1 mM 2-DG, Day 10, Table 26) was 50%, the “% CD8+” value ([3]; 1 mM 2-DG, Day 10, Table 26) was 42% and the “% Ratios (CD8+/CD4+)” value ([3]; 1 mM 2-DG, Day 10, Table 26) was 0.85. The “Fold Increase compared to Baseline” value ([3]; 1 mM 2-DG, Day 10 vs Day 0, Table 26) was 2.18, the “% CD4+” value ([3]; 2 mM 2-DG, Day 10, Table 26) was 42% and the “% CD8+” value ([3]; 2 mM 2-DG, Day 10, Table 26) was 50%. For the same compound, the “% Ratios (CD8+/CD4+)” value ([3]; 2 mM 2-DG, Day 10, Table 26) was 1.18, the “Fold Increase compared to Baseline” value ([3]; 2 mM 2-DG, Day 10 vs Day 0, Table 26) was 3.01 and the “Fold Increase in CD8+ to CD4+ ratio” value ([3]; 4 mM 2-DG, 10 days) was 4.1 fold. For the same compound, the “% CD4+” value ([3]; 4 mM 2-DG, Day 10, Table 26) was 23%, the “% CD8+” value ([3]; 4 mM 2-DG, Day 10, Table 26) was 63% and the “% Ratios (CD8+/CD4+)” value ([3]; 4 mM 2-DG, Day 10, Table 26) was 2.80. For the same compound, the “Fold Increase compared to Baseline” value ([3]; 4 mM 2-DG, Day 10 vs Day 0, Table 26) was 7.15 and the “CD8+ T cell population (frequency)” value ([3]; 4 mM 2-DG) was 63%.
